# Values of other authors as cited in patent US11857566B2, “Sulfonated polystyrene derivative for use in the treatment and/or prophylaxis of cat flu” (UNIWERSYTET JAGIELLONSKI, priority 2018, dated 2024).
# Tests used:
# [1] = in vivo
structure (smiles),measurement,setting,value
"Nc1nc2c(ncn2CCC(CO)CO)c(=O)[nH]1 [PCV, penciclovir]",concentration of PCV in cats,after famciclovir,much lower than expected
"CC(C)[C@H](N)C(=O)OCCOCn1cnc2c(=O)[nH]c(N)nc21 [VCV, Valaciclovir]",symptoms of the disease in cats who took the drug,FHV; in vivo,did not improve symptoms of the disease
same,adverse effects in cats,[1],"many adverse effects, such as bone marrow suppression or liver and kidney necrosis leading to animal death"
Nc1nc2c(ncn2COCCO)c(=O)[nH]1 [acyclovir],activity in cats,FHV; compared with HSV-1 in humans,did not show equally high activity
same,bioavailability in cats,in vivo,low
CC(=O)OCC(CCn1cnc2cnc(N)nc21)COC(C)=O [famciclovir],safety in treatment and prophylaxis of FHV infection in cats,[1],has been shown to be safe
[Cl-].[Li+] [lithium chloride],in vitro antiviral activity against FCV,FCV,very high in vitro antiviral activity
OC(c1cc(C(F)(F)F)nc2c(C(F)(F)F)cccc12)C1CCCCN1 (stereo not drawn) [mefloquine],in vitro antiviral activity against FCV,FCV,very high in vitro antiviral activity
NC(=O)c1ncn([C@@H]2O[C@H](CO)[C@@H](O)[C@H]2O)n1 [ribavirin],in vitro antiviral activity against FCV,FCV,inhibits FCV infection in vitro
